Data as given in patent publication US8563578B2, “Antitumor properties of NO modified protease inhibitors” (Onconox APS, priority 2008, dated 2013).

Legend:
C6 cells [1] = assay: LDH release assay, C6; type: cell-based; details: 24 h, different doses
Procedure: (§1) Reduction of 3-4,5-dimethylthiazol-2-yl)-2,5-diphenyltetrazolium bromide (MTT) to formazan depends on mitochondrial activity of cultured cells, absorption of crystal violet dye correlates with the number of adherent, live cells, while the release of cytosolic lactate dehydrogenase (LDH) indicates the disruption of membrane integrity caracteristic for necrotic cells. The cells were seeded in flat-bottom 96-well plates in a final volume of 200 μl of culture medium containing different agents, and the assays were performed after 24 h incubation exactly as previously described (Mijatovic et al. 2004, Decker et al., 1998). Mitohondrial-dependent production of formazan and intensity of absorbed crystal violet by adherent cells were assessed by an automated microplate reader at 570 nm, while the pyruvate-mediated conversion of 2,4-dinitrophenylhydrazine into visible hydrazone precipitate in LDH assay was measured at 492 nm. The % of cytotoxicity as indicated by LDH release was calculated as: (E−C)/(T−C)×100, where E is the experimental absorbance of cell cultures, C is the control absorbance of cell-free culture medium, and T is the absorbance corresponding to the maximal (100%) LDH release of Triton-lysed cells.
FIG. 4. […] Results are calculated as indicated in materials and methods and presented as mean±SD from representative of three independent experiment (*p <0.05). […]

B16 cells = assay: LDH release assay, B16; type: cell-based; details: for LDH release (cytotoxicity, necrosis): 24 h, different doses
Procedure: as §1, with “The cells were seeded in flat-bottom 96-well plates in a final volume of 200 μl of culture medium containing different agents, and the assays were performed after 24 h incubation exactly as previously described (Mijatovic et al. 2004, Decker et al., 1998).” left out
(§2) FIG. 4. […] Results are calculated as indicated in materials and methods and presented as mean±SD from representative of three independent experiment (*p <0.05). […] After 24 h of cultivation without or with drugs, cells were stained with AO orange (B) or PI (C) and analyzed by flow cytometry. The data are presented as mean±SD from three independent experiments. *p<0.05, refers to untreated cultures. […] Cells were incubated with 18.8 μM of Sag or Saq-NO2 for 24 h. After that, the drugs were either removed or not from the cells and incubated for additional 24 h. Cell viability was determined by CV test after 24 and 48 h of incubation (right panels). The data are presented as mean±SD from three independent experiments. *p<0.05, refers to untreated cultures.

C6 cells [2] = assay: Autophagy detection by acridin orange staining, C6; type: cell-based, rat; details: 18.8 μM, 24 h
Procedure: Vital dye acridin orange (AO) was used for detection of autophagy. The intensity of red fluorescence correlates with acidity and volume of present autophagic organelles (Kanzawa et al. 2004). Assay was performed as follows: the cells were cultured in 6-well plate (2×10^5/well) 24 h in the presence of the drug, detached with trypsin and stained with 1 μg/ml AO in RPMI without phenol red for 15 min at RT. After the end of incubation period cells were washed and resuspended in PBS. Green and red fluorescence emission was measured with a FACSCalibur and analyzed using CellQuest software.
as §2

C6 cells [3] = assay: Cell cycle / apoptosis by propidium iodide flow cytometry, C6; type: cell-based, rat; details: 18.8 μM, 24 h
Procedure: Apoptotic cell death was assessed by flow cytometry analysis of DNA fragmentation in cells stained with DNA-binding dye propidium iodide (PI). Following a 24 h incubation in 6-well plate, cells (2×10^5/well) were detached with trypsin, washed and fixed in 70% ethanol at 4° C. for 30 min. After washing in PBS, cells were resuspended in PBS containing 1 mg/ml RNase and propidium iodide (40 μg/ml) and kept at 37° C. in the dark for 30 min. Red fluorescence was analyzed with FACSCalibur flow cytometer (BD, Heidelberg, Germany) and distribution of cells among cell cycle phases was determined with Cell Quest Pro software (BD). Hypodiploid cells in sub-G0/G1 compartment were considered apoptotic.
as §2

C6 cells [4] = assay: Differentiation markers by cell-based ELISA, C6; set-up: species or system rat; details: 18.8 μM, 24 h
Description: A slightly modified method for cell-based ELISA (cELISA) by Versteeg (Versteed et al., 2000) was used to measure the expression of galactocerebroside, glial fibrilar acidic protein (GFAP), myelin basic protein (MBP), cyclin D3, p53 and p-AKT. Briefly, at the end of cultivation period cells were fixed in 4% paraformaldehyde, endogenous peroxydase was quenched with 1% H2O2 in PBS containing 0.1% Triton X-100 (PBST), and unspecific binding of antibodies blocked with PBST solution containing 10% FCS. Primary mouse monoclonal antibodies specific for rat/mouse p-Akt (1:200; Santa Cruz Biotechnology, Santa Cruz, Calif.), GFAP (1:200, BioYeda, Israel.), galactocerebroside (1:100; Boehringer Mannheim, Mannheim, Germany), MBP (1:100, Boehringer Mannheim, Mannheim, Germany), cyclin D3 (1:750, Santa Cruz Biotechnology, Santa Cruz, Calif.) and p53 (1:250, Santa Cruz Biotechnology, Santa Cruz, Calif.) were applied in PBST supplemented with 2% bovine serum albumin (PBSTB), followed by secondary peroxidase-conjugated goat anti-mouse IgG (1:2500 in PBSTB; GE Healthcare UK) for anti-GFAP and galactocerebroside or anti-rabbit IgG (1:2500, Healthcare UK) for anti-p-Akt, anti-cyclin D3 and anti-p53. All incubations were performed at 37° C. for 1 h. The absorbance at 450 nm was measured in an automated microplate reader 15 min after incubation with peroxydase substrate TMB and subsequently to addition of 0.1 M HCl. To facilitate comparison between treatments, the obtained absorbances were corrected for the cell number that was determined by crystal violet staining, as described in the original protocol. The results are presented as relative expression in comparison with the control value.
FIG. 5. […] Cell morphology was assessed by light microscopy (A). Markers of cell differentiation of C6 and B16 cells, galactocerebroside, GFAP and MBP were determined by cELISA and melanin and tyrosinase activity were determined as described in material and methods (B). Cyclin D3 and p53 expression were evaluated by cELISA (C, upper panels), immunocytochemistry (C, middle panel) and Western blot (C, lower panel). The results were presented as mean±SD from three independent experiments. *p<0.05, refers to untreated cultures.

SMILES	LDH release (cytotoxicity, necrosis) (C6 cells [1])	LDH release (cytotoxicity, necrosis) (B16 cells)	amount of acidic vesicles in the cytoplasm (autophagy) (C6 cells [2])	cell cycle distribution (C6 cells [3])	expression of GFAP (C6 cells [4])	expression of galactocerebroside (C6 cells [4])	LDH release (cytotoxicity, necrosis) (B16 cells; listed as Saq-NO)	cytotoxicity at 18.8 µM (B16 cells; Mus musculus, 18.8 μM, 18 h of exposure, control 2.3%)	percentage of cells in subG compartment (apoptosis) (C6 cells [3])
CC(C)(C)NC(=O)[C@@H]1C[C@@H]2CCCC[C@@H]2CN1C[C@@H](O)[C@H](Cc1ccccc1)NC(=O)[C@H](CC(N)=O)NC(=O)c1ccc2ccccc2n1 [Saq, Saquinavir, reference compound]	induced LDH release in both cell lines in a dose-dependent way	induced LDH release in both cell lines in a dose-dependent way	absence of autophagia	did not show considerably different distribution from control	decreased or unchanged	strongly up regulated	–	–	–
CC(C)(C)NC(=O)[C@@H]1C[C@@H]2CCCC[C@@H]2CN1C[C@@H](O[N+](=O)[O-])[C@H](Cc1ccccc1)NC(=O)[C@H](CC(N)=O)NC(=O)c1ccc2ccccc2n1 [Saq-NO2, nitric ester of Saquinavir]	significant percentage of C6 cytotoxicity was detected only upon the highest dose	induced significant cytoxicity even at lowest dose tested	absence of autophagia	particularly marked arrest in G0/G1	decreased or unchanged	strongly up regulated	dose-dependent LDH release was detected upon all tested doses	6.2%	slightly increased
